Laboratory results: PMC2690642 (Journal of neurochemistry, 2008)

Assays:
[1] = target: T1, NR2B-R (regulatory domain of NMDA receptor NR2B subunit) (Rattus norvegicus, UniProt Q00960); assay: [14C]spermine filter binding to purified NR2B-R; conditions: for [14C]Spermine bound to NR2B-R in presence of addition, %: 40 µM [14C]spermine, % of binding with no addition; for Effect of aminoglycoside on spermine binding to NR2B-R: 20 µM [14C]spermine, aminoglycosides 75 to 300 µM (Fig. 10)
[2] = target: T1, NR2B-R (regulatory domain of NMDA receptor NR2B subunit); assay: [3H]ifenprodil filter binding to purified NR2B-R; conditions: for [3H]Ifenprodil bound to NR2B-R in presence of addition, %: 0.4 µM [3H]ifenprodil, % of binding with no addition
[3] = target: T2, NR1-R (regulatory domain of NMDA receptor NR1 subunit) (Rattus norvegicus, UniProt P35439); assay: [3H]ifenprodil filter binding to purified NR1-R
[4] = target: T3, NR2A-R (regulatory domain of NMDA receptor NR2A subunit) (Rattus norvegicus, UniProt Q00959); assay: [3H]ifenprodil filter binding to purified NR2A-R; conditions: 0.1 to 0.8 µM [3H]ifenprodil
T3 sequence (Q00959 23-389): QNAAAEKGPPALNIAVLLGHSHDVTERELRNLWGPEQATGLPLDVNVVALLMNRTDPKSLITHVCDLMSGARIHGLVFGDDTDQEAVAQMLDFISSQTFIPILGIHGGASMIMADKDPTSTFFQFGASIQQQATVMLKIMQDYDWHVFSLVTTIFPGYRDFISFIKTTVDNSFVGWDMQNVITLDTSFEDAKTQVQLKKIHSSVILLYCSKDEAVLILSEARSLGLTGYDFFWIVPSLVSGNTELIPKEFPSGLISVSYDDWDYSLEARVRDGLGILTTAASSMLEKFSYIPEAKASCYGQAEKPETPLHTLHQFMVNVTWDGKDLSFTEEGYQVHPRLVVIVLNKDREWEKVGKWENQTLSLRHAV

[5] = target: NR2A-R (Rattus norvegicus, UniProt Q00959); assay: Circular dichroism; type: binding
Sequence of NR2A-R (Q00959 23-389): as above

[6] = target: NR1/NR2B receptors; conditions: read-out: IC50 for ifenprodil inhibition at intact, functional NR1/NR2B receptors; pH 7.6; ref Williams 1993; cited from earlier work
[7] = target: T3, NR2A-R (regulatory domain of NMDA receptor NR2A subunit); assay: [14C]spermine filter binding to purified NR2A-R; conditions: for Effect of aminoglycoside on spermine binding to NR2A-R: 20 µM [14C]spermine, aminoglycosides 75 to 300 µM (Fig. 10)
[8] = target: T2, NR1-R (regulatory domain of NMDA receptor NR1 subunit); assay: [14C]spermine filter binding to purified NR1-R; conditions: for Effect of aminoglycoside on spermine binding to NR1-R: 20 µM [14C]spermine, aminoglycosides 75 to 300 µM (Fig. 10)
[9] = target: NR1-R (Rattus norvegicus, UniProt P35439); assay: Circular dichroism; type: binding
[10] = target: NR2B-R (Rattus norvegicus, UniProt P35439+Q00960); assay: Circular dichroism; type: binding
Sequence of NR2B-R (Q00960 27-390, one chain of several): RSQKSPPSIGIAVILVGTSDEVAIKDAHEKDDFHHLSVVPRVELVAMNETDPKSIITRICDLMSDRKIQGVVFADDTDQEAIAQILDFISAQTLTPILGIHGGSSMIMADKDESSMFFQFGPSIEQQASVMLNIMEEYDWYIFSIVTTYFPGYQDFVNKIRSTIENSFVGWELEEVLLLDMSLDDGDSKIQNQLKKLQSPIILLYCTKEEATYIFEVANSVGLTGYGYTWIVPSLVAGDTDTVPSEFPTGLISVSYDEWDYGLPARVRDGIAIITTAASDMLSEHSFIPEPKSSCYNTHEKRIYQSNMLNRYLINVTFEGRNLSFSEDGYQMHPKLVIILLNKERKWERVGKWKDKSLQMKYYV

[11] = target: T4, NR1-R (E181Q) (Rattus norvegicus, UniProt P35439, E181Q)
[12] = target: ovalbumin (Gallus gallus, UniProt P01012); conditions: control, unrelated protein
Sequence of ovalbumin (P01012 whole entry, species assumed): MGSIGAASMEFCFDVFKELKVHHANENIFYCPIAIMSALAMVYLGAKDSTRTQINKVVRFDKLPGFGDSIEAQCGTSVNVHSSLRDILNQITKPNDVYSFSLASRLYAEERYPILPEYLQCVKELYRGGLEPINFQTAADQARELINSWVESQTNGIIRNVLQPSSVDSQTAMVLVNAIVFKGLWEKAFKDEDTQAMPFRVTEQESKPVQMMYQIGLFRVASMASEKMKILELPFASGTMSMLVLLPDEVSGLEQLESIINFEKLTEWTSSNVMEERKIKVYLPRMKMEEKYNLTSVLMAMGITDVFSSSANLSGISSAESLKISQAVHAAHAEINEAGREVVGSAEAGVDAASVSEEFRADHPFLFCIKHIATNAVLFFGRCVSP

[13] = target: T4, NR1-R (E181Q); assay: biochemical
[14] = target: NR1/NR2A receptors (Rattus norvegicus, UniProt P35439+Q00959); assay: Voltage clamp recording in Xenopus oocytes expressing NR1/NR2A
Sequence of NR1/NR2A receptors (Q00959 23-1464, other chains not shown): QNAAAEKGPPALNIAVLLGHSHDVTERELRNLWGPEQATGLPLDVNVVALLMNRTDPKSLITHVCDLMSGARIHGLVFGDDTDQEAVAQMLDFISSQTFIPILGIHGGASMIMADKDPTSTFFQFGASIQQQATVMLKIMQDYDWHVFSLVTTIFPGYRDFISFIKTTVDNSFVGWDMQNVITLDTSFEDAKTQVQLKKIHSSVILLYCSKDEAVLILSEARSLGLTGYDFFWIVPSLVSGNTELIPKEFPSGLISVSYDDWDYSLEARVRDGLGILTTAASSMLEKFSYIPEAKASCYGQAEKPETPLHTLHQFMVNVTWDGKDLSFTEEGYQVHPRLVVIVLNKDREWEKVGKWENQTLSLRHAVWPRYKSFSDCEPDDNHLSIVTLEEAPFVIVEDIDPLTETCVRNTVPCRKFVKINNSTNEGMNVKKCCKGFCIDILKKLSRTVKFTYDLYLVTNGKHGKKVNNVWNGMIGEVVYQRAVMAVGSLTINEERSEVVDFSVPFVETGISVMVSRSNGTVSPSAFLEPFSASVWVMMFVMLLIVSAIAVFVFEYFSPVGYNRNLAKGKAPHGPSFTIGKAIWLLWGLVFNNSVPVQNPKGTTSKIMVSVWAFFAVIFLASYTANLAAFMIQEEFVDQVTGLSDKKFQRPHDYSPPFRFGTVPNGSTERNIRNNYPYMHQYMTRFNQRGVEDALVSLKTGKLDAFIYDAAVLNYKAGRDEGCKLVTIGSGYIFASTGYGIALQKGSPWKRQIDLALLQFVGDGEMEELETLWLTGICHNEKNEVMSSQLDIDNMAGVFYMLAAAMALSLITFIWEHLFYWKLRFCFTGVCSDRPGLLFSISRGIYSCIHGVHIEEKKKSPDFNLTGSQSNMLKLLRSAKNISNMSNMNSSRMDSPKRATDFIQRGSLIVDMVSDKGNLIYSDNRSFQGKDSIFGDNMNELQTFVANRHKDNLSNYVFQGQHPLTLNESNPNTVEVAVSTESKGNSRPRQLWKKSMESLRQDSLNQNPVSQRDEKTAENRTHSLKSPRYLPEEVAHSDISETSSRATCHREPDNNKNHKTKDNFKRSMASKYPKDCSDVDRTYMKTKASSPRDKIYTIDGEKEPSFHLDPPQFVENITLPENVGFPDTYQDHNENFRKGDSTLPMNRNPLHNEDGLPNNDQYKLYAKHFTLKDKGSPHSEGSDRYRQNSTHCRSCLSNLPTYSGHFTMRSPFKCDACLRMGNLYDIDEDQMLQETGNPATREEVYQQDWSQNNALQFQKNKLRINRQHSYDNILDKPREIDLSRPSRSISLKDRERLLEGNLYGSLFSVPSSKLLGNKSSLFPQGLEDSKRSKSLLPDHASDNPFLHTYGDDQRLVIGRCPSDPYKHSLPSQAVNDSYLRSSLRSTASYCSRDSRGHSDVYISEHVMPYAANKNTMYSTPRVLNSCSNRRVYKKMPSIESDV

[15] = target: NR1/NR2B receptors (Rattus norvegicus, UniProt P35439+Q00960); assay: Voltage clamp recording in Xenopus oocytes expressing NR1/NR2B
Sequence of NR1/NR2B receptors (Rattus norvegicus, UniProt P35439+Q00960) (Q00960 27-1482, other chains not shown): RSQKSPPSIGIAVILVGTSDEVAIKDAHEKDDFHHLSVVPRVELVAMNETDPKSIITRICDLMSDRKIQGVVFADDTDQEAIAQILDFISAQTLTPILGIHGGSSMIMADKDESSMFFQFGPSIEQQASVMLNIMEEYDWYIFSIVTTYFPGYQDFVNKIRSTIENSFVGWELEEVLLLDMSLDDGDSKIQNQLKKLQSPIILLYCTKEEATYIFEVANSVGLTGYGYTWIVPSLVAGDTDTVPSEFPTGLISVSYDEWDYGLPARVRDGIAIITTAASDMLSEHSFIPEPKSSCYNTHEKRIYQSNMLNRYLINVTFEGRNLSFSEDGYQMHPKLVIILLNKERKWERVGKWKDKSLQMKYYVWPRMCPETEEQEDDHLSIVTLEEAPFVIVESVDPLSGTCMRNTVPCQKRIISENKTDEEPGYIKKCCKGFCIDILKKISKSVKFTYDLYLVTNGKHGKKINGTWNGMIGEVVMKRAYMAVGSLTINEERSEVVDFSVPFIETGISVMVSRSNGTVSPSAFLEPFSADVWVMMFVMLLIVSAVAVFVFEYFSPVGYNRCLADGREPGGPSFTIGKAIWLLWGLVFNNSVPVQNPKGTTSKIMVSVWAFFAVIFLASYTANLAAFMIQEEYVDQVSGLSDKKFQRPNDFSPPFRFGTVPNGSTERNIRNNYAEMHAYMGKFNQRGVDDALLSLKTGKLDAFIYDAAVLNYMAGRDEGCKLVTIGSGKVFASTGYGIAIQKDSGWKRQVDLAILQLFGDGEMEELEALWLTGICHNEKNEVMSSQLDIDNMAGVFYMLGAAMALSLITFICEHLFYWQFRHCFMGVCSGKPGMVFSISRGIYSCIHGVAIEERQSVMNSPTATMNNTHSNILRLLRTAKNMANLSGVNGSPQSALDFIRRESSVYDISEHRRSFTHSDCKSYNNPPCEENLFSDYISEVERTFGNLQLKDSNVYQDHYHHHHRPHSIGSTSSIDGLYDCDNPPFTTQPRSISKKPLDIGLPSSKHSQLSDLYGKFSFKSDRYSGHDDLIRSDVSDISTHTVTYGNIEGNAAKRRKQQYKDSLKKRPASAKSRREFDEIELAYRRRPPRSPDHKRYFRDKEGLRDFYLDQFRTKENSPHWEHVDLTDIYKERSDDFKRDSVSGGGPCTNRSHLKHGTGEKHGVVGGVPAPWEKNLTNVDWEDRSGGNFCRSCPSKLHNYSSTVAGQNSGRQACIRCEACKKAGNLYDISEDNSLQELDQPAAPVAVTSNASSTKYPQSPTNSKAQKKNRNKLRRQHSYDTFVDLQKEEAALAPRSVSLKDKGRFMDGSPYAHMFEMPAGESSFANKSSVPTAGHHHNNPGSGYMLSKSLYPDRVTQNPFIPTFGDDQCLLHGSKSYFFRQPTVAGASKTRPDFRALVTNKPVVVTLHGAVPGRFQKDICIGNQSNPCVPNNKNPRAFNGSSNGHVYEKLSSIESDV

T1 sequence (Q00960 27-390): as the sequence (Q00960 27-390, one chain of several) above

For N[C@@H](CCC(=O)O)C(=O)O [Glutamate, glutamate], the “[14C]Spermine bound to NR2B-R in presence of addition, %” value (“[14C]Spermine bound to NR2B-R … %” for short) [1] was 102% and the “[3H]Ifenprodil bound to NR2B-R in presence of addition, %” value (“[3H]Ifenprodil bound to NR2B-R … %” below) [2] was 103%.
For NCC(=O)O [Glycine, glycine], the “[3H]Ifenprodil bound to NR2B-R … %” value [2] was 102%.
For NCCCCNCCCN [Spermidine, spermidine], the “[14C]Spermine bound to NR2B-R … %” value [1] was 6% and the “[3H]Ifenprodil bound to NR2B-R … %” value [2] was 98%.
For CC(C(O)c1ccc(O)cc1)N1CCC(Cc2ccccc2)CC1 (stereo not shown) [ifenprodil], the “[14C]Spermine bound to NR2B-R … %” value [1] was 108%, the “Bmax of ifenprodil binding, NR1-R” value [3] was 5.6 nmol/mg R domain protein and the “Bmax of ifenprodil binding, NR1-R, equivalent” value [3] was 0.24 mol/mol R domain protein. The “Hill coefficient for binding of ifenprodil to NR1-R” value [3] was ~1.0, the “Specific binding of [3H]ifenprodil to NR2A-R” value [4] was “no specific binding” and the “Bmax of ifenprodil binding, NR2B-R” value [2] was 5.2 nmol/mg R domain protein. The “Bmax of ifenprodil binding, NR2B-R, equivalent” value [2] was 0.21 mol/mol R domain protein, the “Hill coefficient for binding of ifenprodil to NR2B-R” value [2] was ~1.0 and the “[3H]Ifenprodil bound to NR2B-R … %” value [2] was 15%. The “Change in the CD spectra of NR2A-R” value ([5]; 2 µM ifenprodil) was “no change” and the IC50 [6] was 0.34 µM.
With NC[C@@H]1O[C@H](O[C@H]2[C@@H](O)[C@H](O[C@@H]3[C@@H](O)[C@H](N)C[C@H](N)[C@H]3O[C@H]3O[C@H](CN)[C@@H](O)[C@H](O)[C@H]3N)O[C@@H]2CO)[C@H](N)[C@@H](O)[C@@H]1O [neomycin B] the “Effect of aminoglycoside on spermine binding to NR2A-R” value (“Effect of aminoglycoside … to NR2A-R” below) [7] was “inhibited”, the “Effect of aminoglycoside on spermine binding to NR2B-R” value (“Effect of aminoglycoside … to NR2B-R” for short) [1] was “inhibited” and the “Effect of aminoglycoside on spermine binding to NR1-R” value (from here on “Effect of aminoglycoside … to NR1-R”) [8] was “inhibited”.
For NC[C@@H]1O[C@H](O[C@H]2[C@@H](O)[C@H](O[C@@H]3[C@@H](O)[C@H](N)C[C@H](N)[C@H]3O[C@H]3O[C@H](CO)[C@@H](O)[C@H](O)[C@H]3N)O[C@@H]2CO)[C@H](N)[C@@H](O)[C@@H]1O [paromomycin], the “Effect of aminoglycoside … to NR2A-R” value [7] was “inhibited”, the “Effect of aminoglycoside … to NR2B-R” value [1] was “inhibited” and the “Effect of aminoglycoside … to NR1-R” value [8] was “inhibited”.
For NCCCNCCCCNCCCN [spermine], the “Bmax of spermine binding, NR2A-R, equivalent” value [7] was 0.29 mol/mol R domain, the “Hill coefficient for spermine binding to NR2A-R” value [7] was “close to unity” and the Kd [7] was 140 µM. For the same molecule, the “Bmax of spermine binding, NR2A-R” value ([7]; Scatchard plot) was 6.9 nmol/mg R domain protein, the “Affinity for spermine lower at NR2A R domain compared to NR2B R domain” value ([7]; ratio of Kd) was 4 fold and the “Bmax of spermine binding, NR2B-R, equivalent” value [1] was 0.32 mol/mol R domain. The “Hill coefficient for spermine binding to NR2B-R” value [1] was “close to unity”, the “[14C]Spermine bound to NR2B-R … %” value [1] was 7% and the Kd ([1]; Kd of spermine at NR2B-R calculated from k1 and k−1, from rate constants) was 25.9 µM. The “Bmax of spermine binding, NR2B-R” value ([1]; Scatchard plot) was 7.3 nmol/mg R domain protein, the “Dissociation rate constant k−1 of [14C]spermine at NR2B-R” value ([1]; after addition of nonlabeled 3 mM spermine) was 0.22 min⁻¹ and the “Association rate constant k1 of [14C]spermine at NR2B-R” value ([1]; average at 12.5, 25 and 50 µM [14C]spermine) was 8,500 M^−1·min^−1. For the same molecule, the “[3H]Ifenprodil bound to NR2B-R … %” value [2] was 99%, the Kd [9] was 20 µM and the Kd [5] was 133 µM. The Kd [10] was 35 µM, the “Binding of spermine to E181Q mutant compared to wild-type NR1-R” value [11] was “reduced” and the “Binding of spermine to ovalbumin” value [12] was “little binding”. For the same molecule, the Kd [13] was 74 µM, the “Bmax of spermine binding, NR1-R, equivalent” value [8] was 0.24 mol/mol R domain and the “Hill coefficient for spermine binding to NR1-R” value [8] was “close to unity”. For the same molecule, the Kd [8] was 19 µM, the “Bmax of spermine binding, NR1-R” value ([8]; Scatchard plot) was 6.3 nmol/mg R domain protein and the EC50 [14] was 278 µM. The “Hill coefficient for spermine at NR1/NR2A” value ([14]; oocytes, −20 mV) was 1.17, the EC50 [15] was 78 µM and the “Hill coefficient for spermine at NR1/NR2B” value ([15]; oocytes, −20 mV) was 1.05.
With [H]/N=C(/N)N[C@H]1[C@H](O)[C@@H](O)[C@H](O[C@@H]2O[C@@H](C)[C@](O)(C=O)[C@H]2O[C@@H]2O[C@@H](CO)[C@H](O)[C@@H](O)[C@@H]2NC)[C@@H](N/C(N)=N\[H])[C@@H]1O [streptomycin] the “Effect of aminoglycoside … to NR2A-R” value [7] was “inhibited”, the “Effect of aminoglycoside … to NR2B-R” value [1] was “inhibited” and the “Effect of aminoglycoside … to NR1-R” value [8] was “inhibited”.
With kanamycin A the “Effect of aminoglycoside … to NR2A-R” value [7] was “inhibited”, the “Effect of aminoglycoside … to NR2B-R” value [1] was “inhibited” and the “Effect of aminoglycoside … to NR1-R” value [8] was “inhibited”.
